Values joined by “and” are separate entries in the source; they are usually repeats but may differ in a detail not shown here. Equal values may be shown once. Inconclusive results and toxic doses are left out.
System: CD2F1 mice, L1210 leukemia ip, survival T/C
Experiment: NCI In Vivo Anticancer Drug Screen. Data for tumor model L1210 Leukemia (intraperitoneal) in CD2F1 (CDF1) mice
Settings: higher = longer survival
Summary of the method: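 Transplantable tumor in mice; compound-treated vs vehicle-treated groups. Read-out = treated/control ratio of the measured endpoint.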

[1] = endpoint: mean survival time, dose: 100.0 mg/kg/injection, schedule: Q01DX001 (ip), vehicle: saline with Tween-80
[2] = endpoint: mean survival time, dose: 400.0 mg/kg/injection, schedule: Q01DX001 (ip), vehicle: saline with Tween-80
[3] = endpoint: mean survival time, dose: 12.5 mg/kg/injection, schedule: Q04DX003 (ip), vehicle: saline with Tween-80
[4] = endpoint: mean survival time, dose: 50.0 mg/kg/injection, schedule: Q04DX003 (ip), vehicle: saline with Tween-80
[5] = endpoint: mean survival time, dose: 200.0 mg/kg/injection, schedule: Q01DX001 (ip), vehicle: saline with Tween-80
[6] = endpoint: mean survival time, dose: 100.0 mg/kg/injection, schedule: Q01DX001 (ip), vehicle: saline
[7] = endpoint: mean survival time, dose: 200.0 mg/kg/injection, schedule: Q01DX001 (ip), vehicle: saline
[8] = endpoint: mean survival time, dose: 400.0 mg/kg/injection, schedule: Q01DX001 (ip), vehicle: saline
[9] = endpoint: mean survival time, dose: 100.0 mg/kg/injection, schedule: Q01DX009 (ip), vehicle: saline with Tween-80
[10] = endpoint: mean survival time, dose: 200.0 mg/kg/injection, schedule: Q01DX009 (ip), vehicle: saline with Tween-80
[11] = endpoint: mean survival time, dose: 400.0 mg/kg/injection, schedule: Q01DX009 (ip), vehicle: saline with Tween-80
[12] = endpoint: mean survival time, dose: 25.0 mg/kg/injection, schedule: Q01DX009 (ip), vehicle: saline sonified

For `COc1ccc2[nH]c3cc(Cl)ccc3c(=O)c2c1`, the T/C [1] was 87 % of control and the T/C [2] was 90 % of control.

`CCOCc1cc([N+](=O)[O-])cc([N+](=O)[O-])c1O` was tested, and the T/C [3] was 98 % of control, the T/C (endpoint: mean survival time, dose: 25.0 mg/kg/injection, schedule: Q04DX003 (ip), vehicle: saline with Tween-80) was 98 % of control and the T/C [4] was 100 % of control.

For `Nc1c(C(=O)O)ncn1C1OC(CO)C(O)C1O` (stereo unspecified), the T/C (endpoint: median survival time, dose: 7.88 mg/kg/injection, schedule: Q01DX005 (ip), vehicle: saline) was 101 % of control, the T/C (endpoint: median survival time, dose: 15.75 mg/kg/injection, schedule: Q01DX005 (ip), vehicle: saline) was 104 % of control and the T/C (endpoint: median survival time, dose: 31.5 mg/kg/injection, schedule: Q01DX005 (ip), vehicle: saline) was 104 % of control. For the same compound, the T/C (endpoint: median survival time, dose: 63.0 mg/kg/injection, schedule: Q01DX005 (ip), vehicle: saline) was 103 % of control and the T/C (endpoint: median survival time, dose: 126.0 mg/kg/injection, schedule: Q01DX005 (ip), vehicle: saline) was 92 % of control.

In the case of `N=C(N)c1ccc(OCCOc2ccc(N)cc2)cc1`, the T/C [1] was 103 % of control and the T/C [5] was 103 % of control.

In the case of `O=C(Nc1ccc(F)c(Cl)c1)N(CCO)C1CCCCC1`, the T/C (endpoint: mean survival time, dose: 50.0 mg/kg/injection, schedule: Q01DX009 (ip), vehicle: Klucel (hydroxypropylcellulose) (HPC)) was 91 % of control, the T/C (endpoint: mean survival time, dose: 100.0 mg/kg/injection, schedule: Q01DX009 (ip), vehicle: Klucel (hydroxypropylcellulose) (HPC)) was 102 % of control and the T/C (endpoint: mean survival time, dose: 200.0 mg/kg/injection, schedule: Q01DX009 (ip), vehicle: Klucel (hydroxypropylcellulose) (HPC)) was 95 % of control.

For `C[N+](C)(C)C(Cc1c[nH]c2ccccc12)C(=O)O` (stereo unspecified), the T/C [6] was 91 % of control, the T/C (endpoint: mean survival time, dose: 100.0 mg/kg/injection, schedule: Q04DX003 (ip), vehicle: saline) was 96 % of control and 100 % of control and the T/C [7] was 101 % of control. For the same compound, the T/C (endpoint: mean survival time, dose: 200.0 mg/kg/injection, schedule: Q04DX003 (ip), vehicle: saline) was 105 % of control and 97 % of control, the T/C [8] was 95 % of control and the T/C (endpoint: mean survival time, dose: 400.0 mg/kg/injection, schedule: Q04DX003 (ip), vehicle: saline) was 94 % of control and 95 % of control.

`O=C1CN(CCN2CC(=O)N(CN3CCOCC3)C(=O)C2)CC(=O)N1CN1CCOCC1` was tested, and the T/C (endpoint: median survival time, dose: 12.5 mg/kg/injection, schedule: Q01DX009 (ip), vehicle: water) was 111 % of control, the T/C (endpoint: median survival time, dose: 25.0 mg/kg/injection, schedule: Q01DX009 (ip), vehicle: water) was 118 % of control and the T/C (endpoint: median survival time, dose: 50.0 mg/kg/injection, schedule: Q01DX009 (ip), vehicle: water) was 164 % of control. The T/C (endpoint: median survival time, dose: 100.0 mg/kg/injection, schedule: Q01DX009 (ip), vehicle: water) was 181 % of control and 188 % of control and the T/C (endpoint: median survival time, dose: 200.0 mg/kg/injection, schedule: Q01DX009 (ip), vehicle: water) was 97 % of control and 111 % of control.

In the case of `O=S(O)c1ccccc1`, the T/C [6] was 92 % of control, the T/C [7] was 94 % of control and the T/C [8] was 110 % of control.

For `COc1ccc2c(C(=O)CCC(=O)O)cccc2c1`, the T/C (endpoint: mean survival time, dose: 100.0 mg/kg/injection, schedule: Q01DX009 (ip), vehicle: saline) was 94 % of control, the T/C (endpoint: mean survival time, dose: 200.0 mg/kg/injection, schedule: Q01DX009 (ip), vehicle: saline) was 90 % of control and the T/C (endpoint: mean survival time, dose: 400.0 mg/kg/injection, schedule: Q01DX009 (ip), vehicle: saline) was 100 % of control.

With `[Cl][Pt+2][Cl].[NH-]C(Cc1ccc(O)cc1)C(=O)O.[NH-]C(Cc1ccc(O)cc1)C(=O)O` (stereo unspecified) the T/C [3] was 95 % of control, the T/C [4] was 97 % of control and the T/C (endpoint: mean survival time, dose: 100.0 mg/kg/injection, schedule: Q04DX003 (ip), vehicle: saline with Tween-80) was 95 % of control.

For `FCCc1ccc(F)cc1`, the T/C [1] was 101 % of control, the T/C (endpoint: mean survival time, dose: 100.0 mg/kg/injection, schedule: Q04DX003 (ip), vehicle: saline sonified) was 93 % of control and the T/C [5] was 100 % of control. For the same compound, the T/C (endpoint: mean survival time, dose: 200.0 mg/kg/injection, schedule: Q04DX003 (ip), vehicle: saline sonified) was 100 % of control, the T/C [2] was 101 % of control and the T/C (endpoint: mean survival time, dose: 400.0 mg/kg/injection, schedule: Q04DX003 (ip), vehicle: saline sonified) was 98 % of control.

For `c1ccc([Te][Te]c2ccccc2)cc1`, the T/C (endpoint: median survival time, dose: 12.5 mg/kg/injection, schedule: Q01DX009 (ip), vehicle: saline with Tween-80) was 104 % of control, the T/C (endpoint: median survival time, dose: 25.0 mg/kg/injection, schedule: Q01DX009 (ip), vehicle: saline with Tween-80) was 108 % of control and the T/C (endpoint: median survival time, dose: 50.0 mg/kg/injection, schedule: Q01DX009 (ip), vehicle: saline with Tween-80) was 104 % of control.

With `CCN(CC)Cc1cc([N+](=O)[O-])ccc1O` the T/C (endpoint: mean survival time, dose: 75.0 mg/kg/injection, schedule: Q01DX001 (ip), vehicle: saline) was 104 % of control and the T/C (endpoint: mean survival time, dose: 150.0 mg/kg/injection, schedule: Q01DX001 (ip), vehicle: saline) was 100 % of control.

In the case of `CN(C)N=Nc1ccc(S(N)(=O)=O)cc1C(N)=O`, the T/C (endpoint: mean survival time, dose: 18.8 mg/kg/injection, schedule: Q01DX009 (ip), vehicle: Klucel (hydroxypropylcellulose) (HPC)) was 96 % of control and 106 % of control, the T/C (endpoint: mean survival time, dose: 37.5 mg/kg/injection, schedule: Q01DX009 (ip), vehicle: Klucel (hydroxypropylcellulose) (HPC)) was 98 % of control and 110 % of control and the T/C (endpoint: mean survival time, dose: 75.0 mg/kg/injection, schedule: Q01DX009 (ip), vehicle: Klucel (hydroxypropylcellulose) (HPC)) was 120 % of control. For the same compound, the T/C (endpoint: mean survival time, dose: 300.0 mg/kg/injection, schedule: Q01DX009 (ip), vehicle: Klucel (hydroxypropylcellulose) (HPC)) was 117 % of control and 111 % of control.

For `CC(CC(C)O)=NCCN=C(C)CC(C)O.[Ni]` (stereo unspecified), the T/C (endpoint: mean survival time, dose: 1.5 mg/kg/injection, schedule: Q01DX009 (ip), vehicle: saline with Tween-80) was 103 % of control, the T/C (endpoint: mean survival time, dose: 3.0 mg/kg/injection, schedule: Q01DX009 (ip), vehicle: saline with Tween-80) was 101 % of control and the T/C (endpoint: mean survival time, dose: 6.0 mg/kg/injection, schedule: Q01DX009 (ip), vehicle: saline with Tween-80) was 105 % of control. For the same compound, the T/C (endpoint: mean survival time, dose: 12.5 mg/kg/injection, schedule: Q01DX001 (ip), vehicle: saline) was 102 % of control and the T/C (endpoint: mean survival time, dose: 25.0 mg/kg/injection, schedule: Q01DX001 (ip), vehicle: saline) was 112 % of control.

With `Cc1ccc(C(=O)CCCCl)c(C)c1` the T/C [9] was 111 % of control, the T/C [10] was 104 % of control and the T/C [11] was 104 % of control.

In the case of `CC1C(=O)C(Br)CC2C1(C)CCC1C2(C)CCC2(C)C3CC(C)(C)CCC3(C)CCC12C` (stereo unspecified), the T/C [6] was 97 % of control, the T/C [7] was 97 % of control and the T/C [8] was 97 % of control.

In the case of `CC(C#N)(Nc1ccccc1)c1ccc(Cl)cc1` (stereo unspecified), the T/C (endpoint: mean survival time, dose: 50.0 mg/kg/injection, schedule: Q01DX009 (ip), vehicle: saline with Tween-80) was 86 % of control, the T/C [10] was 97 % of control and the T/C (endpoint: mean survival time, dose: 200.0 mg/kg/injection, schedule: Q04DX003 (ip), vehicle: saline with Tween-80) was 87 % of control.

`O=c1cc[nH]c2cc(Cl)ccc12` was tested, and the T/C (endpoint: mean survival time, dose: 100.0 mg/kg/injection, schedule: Q04DX003 (ip), vehicle: alcohol) was 89 % of control and the T/C (endpoint: mean survival time, dose: 200.0 mg/kg/injection, schedule: Q04DX003 (ip), vehicle: alcohol) was 96 % of control.

With `c1ccc2c(c1)sc1cc3c(cc12)CCCC3` the T/C (endpoint: mean survival time, dose: 7.9 mg/kg/injection, schedule: Q04DX003 (ip), vehicle: other) was 93 % of control, the T/C (endpoint: mean survival time, dose: 15.7 mg/kg/injection, schedule: Q04DX003 (ip), vehicle: other) was 93 % of control and the T/C (endpoint: mean survival time, dose: 31.3 mg/kg/injection, schedule: Q04DX003 (ip), vehicle: other) was 93 % of control. For the same compound, the T/C (endpoint: mean survival time, dose: 62.5 mg/kg/injection, schedule: Q04DX003 (ip), vehicle: other) was 93 % of control and the T/C (endpoint: mean survival time, dose: 125.0 mg/kg/injection, schedule: Q04DX003 (ip), vehicle: other) was 93 % of control.

With `COc1ccc(C2N(C)CCCN2C)c(OC)c1` the T/C (endpoint: mean survival time, dose: 6.25 mg/kg/injection, schedule: Q01DX009 (ip), vehicle: saline sonified) was 103 % of control, the T/C (endpoint: mean survival time, dose: 6.25 mg/kg/injection, schedule: Q04DX003 (ip), vehicle: saline sonified) was 101 % of control and the T/C (endpoint: mean survival time, dose: 12.5 mg/kg/injection, schedule: Q01DX009 (ip), vehicle: saline sonified) was 103 % of control. For the same compound, the T/C (endpoint: mean survival time, dose: 12.5 mg/kg/injection, schedule: Q04DX003 (ip), vehicle: saline sonified) was 108 % of control, the T/C [12] was 98 % of control and the T/C (endpoint: mean survival time, dose: 25.0 mg/kg/injection, schedule: Q04DX003 (ip), vehicle: saline sonified) was 100 % of control.

In the case of `COC(=O)CC1C2CCc3cc(OC)ccc3C2CCC1(C)C(=O)OC` (stereo unspecified), the T/C [9] was 97 % of control, the T/C [10] was 101 % of control and the T/C [11] was 94 % of control.

In the case of `CC(=O)OCC(C)CCC1OC2CC3C4CCC5CC(OC(C)=O)CCC5(C)C4CCC3(C)C2C1C` (stereo unspecified), the T/C [1] was 100 % of control, the T/C [5] was 101 % of control and the T/C [2] was 94 % of control.

With `O=C(CCl)NC(=O)CCl` the T/C [12] was 90 % of control, the T/C (endpoint: mean survival time, dose: 50.0 mg/kg/injection, schedule: Q01DX009 (ip), vehicle: saline sonified) was 104 % of control and the T/C (endpoint: mean survival time, dose: 100.0 mg/kg/injection, schedule: Q01DX009 (ip), vehicle: saline sonified) was 90 % of control.

From PubChem BioAssay AID256 (DTP/NCI, 2004)
